Reference: US10071095B2, “1,2,4-triazolo [4,3-A] pyridine derivatives and their use for the treatment of neurological and psychiatric disorders” (JANSSEN PHARMACEUTICALS, INC., priority 2009, dated 2018)

Molecular target: T1, human mGluR2 receptor (Homo sapiens, UniProt Q14416)
T1 construct: expressed in transfected cells; host or cells: CHO cells
Assay: [35S]GTPγS binding assay, positive allosteric modulation (GTPγS-PAM) in presence of EC20 glutamate
Assay type: biochemical
Conditions: in presence of glutamate at EC20; average pEC50 if more experiments; ‡ means tested once
Protocol: [^35S]GTPγS Binding Assay
The [^35S]GTPγS binding assay is a functional membrane-based assay used to study G-protein coupled receptor (GPCR) function whereby incorporation of a non-hydrolysable form of GTP, [^35S]GTPγS (guanosine 5′-triphosphate, labelled with […] ^35S), is measured. The G-protein α subunit catalyzes the exchange of guanosine 5′-diphosphate (GDP) by guanosine triphosphate (GTP) and on activation of the GPCR by an agonist, [^35S]GTPγS, becomes incorporated and cannot be cleaved to continue the exchange cycle (Harper (1998) Current Protocols in Pharmacology 2.6.1-10, John Wiley & Sons, Inc.). […] Here we describe the use of the [^35S]GTPγS binding assay using membranes from cells transfected with the human mGluR2 receptor and adapted from Schaffhauser et al. ((2003) Molecular Pharmacology 4:798-810) for the detection of the positive allosteric modulation (PAM) properties of the compounds of this invention.
CHO-cells were cultured to pre-confluence and stimulated with 5 mM butyrate for 24 h, prior to washing in PBS, and then collected by scraping in homogenisation buffer (50 mM Tris-HCl buffer, pH 7.4, 4° C.). Cell lysates were homogenized briefly using an ultra-turrax homogenizer. The homogenate was centrifuged at 16,000 RPM (Sorvall RC-5C plus rotor SS-34) for 10 minutes and the supernatant discarded. The pellet was resuspended in 5 mM Tris-HCl, pH 7.4 and centrifuged again (18,000 RPM, 20 min, 4° C.). The final pellet was resuspended in 50 mM Tris-HCl, pH 7.4 and stored at −80° C. in appropriate aliquots before use. Protein concentration was determined by the Bradford method (Bio-Rad, USA) with bovine serum albumin as standard.
Measurement of mGluR2 positive allosteric modulatory activity of test compounds was performed as follows. Test compounds and glutamate were diluted in assay buffer containing 10 mM HEPES acid, 10 mM HEPES salt, pH 7.4, 100 mM NaCl, 3 mM MgCl2 and 10 μM GDP. Human mGlu2 receptor-containing membranes were thawed on ice and diluted in assay buffer supplemented with 14 μg/ml saponin. Membranes were pre-incubated with compound alone or together with a predefined (˜EC20) concentration of glutamate (PAM assay) for 30 min at 30° C. After addition of [^35S]GTPγS (f.c. 0.1 nM) microplates were shaken briefly and further incubated to allow [^35S]GTPγS incorporation on activation (30 minutes, 30° C.). Final assay mixtures contained 7 μg of membrane protein in 10 mM HEPES acid, 10 mM HEPES salt, pH 7.4, 100 mM NaCl, 3 mM MgCl2, 10 µM GDP and 10 μg/ml saponin. Total reaction volume was 200 μl. Reactions were terminated by rapid filtration through Unifilter-96 GF/B filter plates (Packard, Meriden, Conn.) using a 96-well Packard filtermate harvester. Filters were washed 6 times with ice-cold 10 mM NaH2PO4/10 mM Na2HPO4, pH 7.4. Filters were then air-dried, and 40 μl of liquid scintillation cocktail (Microscint-O) was added to each well. Membrane-bound radioactivity was counted in a Microplate Scintillation and Luminescence Counter from Packard.
The concentration-response curves of representative compounds of the present invention-obtained in the presence of EC20 of mGluR2 agonist glutamate to determine positive allosteric modulation (PAM)—were generated using the Lexis software interface (developed at J&J).

T1 sequence (Q14416 19-872): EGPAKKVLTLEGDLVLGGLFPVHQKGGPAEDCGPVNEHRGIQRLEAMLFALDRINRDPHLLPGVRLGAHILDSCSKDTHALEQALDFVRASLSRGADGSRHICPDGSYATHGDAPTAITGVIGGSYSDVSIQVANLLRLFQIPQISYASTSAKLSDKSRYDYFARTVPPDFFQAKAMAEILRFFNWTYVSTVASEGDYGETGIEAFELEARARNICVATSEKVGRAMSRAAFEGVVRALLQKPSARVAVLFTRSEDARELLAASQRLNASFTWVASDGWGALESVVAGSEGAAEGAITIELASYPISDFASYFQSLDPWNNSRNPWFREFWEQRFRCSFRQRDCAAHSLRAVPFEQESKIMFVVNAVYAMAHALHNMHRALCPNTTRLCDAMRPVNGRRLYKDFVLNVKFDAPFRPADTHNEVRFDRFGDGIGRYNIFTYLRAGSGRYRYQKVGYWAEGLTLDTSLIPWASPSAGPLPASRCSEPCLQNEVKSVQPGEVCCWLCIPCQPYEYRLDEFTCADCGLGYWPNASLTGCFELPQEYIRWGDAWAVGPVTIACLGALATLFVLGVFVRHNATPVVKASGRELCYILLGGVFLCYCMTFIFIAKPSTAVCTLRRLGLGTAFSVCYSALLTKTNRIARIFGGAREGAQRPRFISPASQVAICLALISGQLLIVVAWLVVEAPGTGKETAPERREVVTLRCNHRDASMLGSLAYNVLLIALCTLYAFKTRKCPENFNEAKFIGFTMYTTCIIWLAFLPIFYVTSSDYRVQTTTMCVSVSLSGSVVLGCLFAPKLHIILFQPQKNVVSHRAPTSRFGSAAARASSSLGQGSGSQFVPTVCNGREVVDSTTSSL

Compound | GTPγS - hR2 PAM pEC50
FC(F)(F)c1c(N2CC3C(C2)C3c2ccccc2)ccn2c(CC3CC3)nnc12 (racemic) [compound 75] | 7.05
FC(F)(F)Cc1nnc2c(Cl)c(N3CC4C(C3)C4c3ccccc3)ccn12 (racemic) [compound 81] | 6.85
CCc1nnc2c(C)c(N3CC4C(C3)C4c3ccccc3)ccn12 (racemic) [compound 335] | 6.42‡
CCCCc1nnc2c(C(F)(F)F)c(N3CC4C(C3)C4c3ccccc3)ccn12 (racemic) [compound 338] | 7.42‡
CC1CN(c2ccn3c(CC4CC4)nnc3c2Cl)CCC1c1ccccc1 (single isomer, unassigned) [compound 208] | 7.06
CC1CN(c2ccn3c(CC4CC4)nnc3c2Cl)CCC1c1ccccc1 (single isomer, unassigned) [compound 211] | 7.44
CC1CN(c2ccn3c(CC4CC4)nnc3c2C(F)(F)F)CCC1c1ccccc1 (single isomer, unassigned) [compound 212] | 8.08
FC(F)(F)c1c(N2CCC(F)(c3ccccc3)CC2)ccn2c(CC3CC3)nnc12 [compound 2, 3-Cyclopropylmethyl-7-(4-fluoro-4-phenyl-1-piperidinyl)-8-(trifluoromethyl)-1,2,4-triazolo[4,3-a]pyridine] | 7.41
CCCCc1nnc2c(C(F)(F)F)c(N3CCC(c4ccccc4)CC3)ccn12 [compound 4, 3-Butyl-7-(4-phenyl-1-piperidinyl)-8-trifluoromethyl-1,2,4-triazolo[4,3-a]pyridine] | 7.62
CCc1nnc2c(C#N)c(N3CCC(c4ccccc4)CC3)ccn12 [compound 10, 3-ethyl-7-(4-phenyl-1-piperidinyl)-1,2,4-triazolo[4,3-a]pyridine-8-carbonitrile] | 6.16
N#Cc1c(N2CCC(c3ccccc3)CC2)ccn2c(CC3CC3)nnc12 [compound 13, 3-(cyclopropylmethyl)-7-(4-phenyl-1-piperidinyl)-1,2,4-triazolo[4,3-a]pyridine-8-carbonitrile] | 7.13
N#Cc1c(N2CCC(c3ccccc3)CC2)ccn2c(CC(F)(F)F)nnc12 [compound 20] | 7.25
CCc1nnc2c(C#N)c(N3CCC(c4cccc(F)c4OC)CC3)ccn12 [compound 21] | 6.61
FC(F)(F)Cc1nnc2c(Cl)c(N3CCC(c4ccccc4)CC3)ccn12 [compound 22] | 7.26
CCCc1nnc2c(C#N)c(N3CCC(c4cccc(F)c4OC)CC3)ccn12 [compound 23] | 6.98
COCc1nnc2c(C#N)c(N3CCC(c4ccccc4)CC3)ccn12 [compound 24] | 6.33‡
CCc1nnc2c(Cl)c(N3CCC(c4ccccc4)CC3)ccn12 [compound 25] | 6.42
COc1c(F)cccc1C1CCN(c2ccn3c(CC(F)(F)F)nnc3c2C#N)CC1 [compound 27] | 7.51
CCCc1nnc2c(C#N)c(N3CCC(c4ccccc4)CC3)ccn12 [compound 28] | 6.53
N#Cc1c(N2CCC(c3ccccc3)CC2)ccn2c(C3(C(F)(F)F)CC3)nnc12 [compound 31] | 6.27
N#Cc1c(N2CCC(c3ccccc3)CC2)ccn2c(COCc3ccccc3)nnc12 [compound 32] | 7.03
CC(F)(F)c1nnc2c(C#N)c(N3CCC(c4ccccc4)CC3)ccn12 [compound 33] | 5.15‡

Compound | GTPγS - hR2 PAM pEC50
N#Cc1c(N2CCC(c3ccccc3)CC2)ccn2c(CC3CCC3)nnc12 [compound 34] | 7.35
CC(C)(C)c1nnc2c(C#N)c(N3CCC(c4ccccc4)CC3)ccn12 [compound 35] | 5.91
N#Cc1c(N2CCC(c3ccccc3)CC2)ccn2c(CN3CCCC3)nnc12 [compound 36] | 5.95‡
N#Cc1c(N2CCC(c3ccccc3)CC2)ccn2c(CN3CCC(C(F)(F)F)CC3)nnc12 [compound 37] | 6.51
FC(F)(F)Cc1nnc2c(C(F)(F)F)c(N3CCC(c4ccccc4)CC3)ccn12 [compound 38] | 7.74
FC(F)(F)c1cccc(C2CCN(c3ccn4c(CC5CC5)nnc4c3Cl)CC2)c1 [compound 39] | 7.52
N#Cc1c(N2CCC(F)(c3ccccc3)CC2)ccn2c(CC3CC3)nnc12 [compound 40] | 6.67
FC1(c2ccccc2)CCN(c2ccn3c(CC4CC4)nnc3c2Cl)CC1 [compound 42] | 6.83
N#Cc1c(N2CCN(C3CCC(C(F)(F)F)CC3)CC2)ccn2c(CC3CC3)nnc12 (stereo not shown) [compound 45] | 6.07‡
Cc1cccnc1OC1CCN(c2ccn3c(CC4CC4)nnc3c2Cl)CC1 [compound 48] | 6.9‡
COc1cccc(F)c1C1CCN(c2ccn3c(CC(F)(F)F)nnc3c2C#N)CC1 [compound 51] | 8.35‡
N#Cc1c(N2CCN(Cc3ccc(OCC4CC4)c(Cl)c3)CC2)ccn2c(CC(F)(F)F)nnc12 [compound 52] | 6.98‡
N#Cc1c(N2CCC(F)(c3ccccc3)CC2)ccn2c(CC(F)(F)F)nnc12 [compound 54] | 6.95
COc1cccc(F)c1C1CCN(c2ccn3c(CC4CC4)nnc3c2Cl)CC1 [compound 55] | 8.22
FC(F)(F)Cc1nnc2c(Cl)c(N3CCC(c4ccccn4)CC3)ccn12 [compound 56] | 6.02‡
COc1cccc(F)c1C1CCN(c2ccn3c(CC4CC4)nnc3c2C#N)CC1 [compound 57] | 8.16‡
N#Cc1c(N2CCN(C3CCC(C(F)(F)F)CC3)CC2)ccn2c(CC(F)(F)F)nnc12 (stereo not shown) [compound 58] | 6.23
Cc1cccnc1OC1CCN(c2ccn3c(CC(F)(F)F)nnc3c2Cl)CC1 [compound 59] | 7.17
N#Cc1c(N2CCN(Cc3cccc(C(F)(F)F)c3)CC2)ccn2c(CC(F)(F)F)nnc12 [compound 60] | 6.33
COc1ccc(F)cc1C1CCN(c2ccn3c(CC(F)(F)F)nnc3c2Cl)CC1 [compound 61] | 7.98
FC(F)(F)c1c(N2CCC(c3ccccc3)(N3CCOCC3)CC2)ccn2c(CC3CC3)nnc12 [compound 62] | 6.41
FC(F)(F)Cc1nnc2c(Cl)c(N3CCN(c4ncccn4)CC3)ccn12 [compound 63] | 6.08

Same assay, conditions: in presence of glutamate at EC20; average pEC50 if more experiments; ‡ means tested once; read-out: GTPγS - hR2 PAM pEC50 (converted)

Compound | EC50
CCOCc1nnc2c(Cl)c(N3CCC(c4ccccc4)CC3)ccn12 [compound 5, 8-Chloro-3-(ethoxymethyl)-7-(4-phenyl-1-piperidinyl)-1,2,4-triazolo[4,3-a]pyridine] | 132 nM
CC(C)(O)c1ccccc1C1CCN(c2ccn3c(CC4CC4)nnc3c2Cl)CC1 [compound 7, 2-[1-[8-Chloro-3-(cyclopropylmethyl)-1,2,4-triazolo[4,3-a]pyridin-7-yl]-4-piperidinyl]-α,α-dimethyl-benzenemethanol] | 39.8 nM
CC(C)Cc1nnc2c(Cl)c(N3CCC(c4ccccc4)CC3)ccn12 [compound 9, 8-Chloro-3-(2-methylpropyl)-7-(4-phenyl-1-piperidinyl)-1,2,4-triazolo[4,3-a]pyridine] | 269 nM
N#Cc1c(N2CCC(c3ccccc3)CC2)ccn2c(CN3CCC(c4ccccc4)CC3)nnc12 [compound 12, 7-(4-phenyl-1-piperidinyl)-3-[(4-phenyl-1-piperidinyl)methyl]-1,2,4triazolo[4,3-a]pyridine-8-carbonitrile] | 46.8 nM
N#Cc1c(N2CCC(c3ccccc3)CC2)ccn2c(C3CCC3)nnc12 [compound 14, 3-Cyclobutyl-7-(4-phenyl-1-piperidinyl)-1,2,4-triazolo[4,3-a]pyridine-8-carbonitrile] | 427 nM
